The record followed here is patent publication US3953456A, “Carbostyril derivatives and process for preparing the same” (Otsuka Pharmaceutical Co., Ltd., priority 1972, dated 1976).

The structures appear in SMILES notation. Read-outs that look alike come from different tables or passages of the source.

In one data set the test system is isoprenaline. The data set is described as follows: Antagonistic activity against isoprenaline (β-blockers screening method) in anesthesized dogs: % inhibition of pulse increase and blood pressure reduction. It is filed as in vivo, male mongrel adult dogs. The note with it: isoprenaline 0.3 γ/Kg after 5 minutes; for Antagonistic Activity Against Isoprenaline (% Inhibition), Blood Pressure: pressure reduction by isoprenaline alone = 100%; for Antagonistic Activity Against Isoprenaline (% Inhibition), Pulse: pulse increase by isoprenaline alone = 100%. The procedure:
The antagonistic activity of the compounds of this invention against isoprenaline was determined using the β-blockers screening method (C. E. Powell, I. H. Slater : J. Pharmac., 122, 480 (1958 )).
Male mongrel adult dogs, weighing 13 to 20 Kg were anesthesized with 30 mg/Kg of body weight of pentabarbital sodium administered intravenously. Each of the test compounds was then administered to the anesthesized dog at a dosage level of 30γ or 100γ/Kg of body weight from the femoral vein and after 5 minutes isoprenaline was administered to the dog through the femoral vein at a dosage level of 0.3 γ/Kg of body weight. the blood pressure and the pulse (H.R.) were then recorded on a polygraph through a pressure transducer and a tachometer operated by the R wave of the electrocardiograph, respectively, to determine % inhibitory activity of the test compound against the pulse increase and the pressure reduction induced by isoprenaline.
*The pulse increase and the pressure reduction induced by the
administration of isoprenaline alone are referred to as 100%.

The nature of data set [1]: Acute toxicity in rat (LD50, 50% lethal dose). The note with it: in vivo, rat (Wister strain). The protocol: Also, the acute toxicity in rat (Wister strain) was determined in a standard manner with respect to representative compounds of this invention.

Regarding `CC(C)NCC(O)COc1cccc2[nH]c(=O)ccc12` (centres unmarked) [5-(2-hydroxy-3-isopropylamino)propoxycarbostyril], in the data set with isoprenaline (30 γ/Kg from the femoral vein), the “Antagonistic Activity Against Isoprenaline (% Inhibition), Blood Pressure” value came out at 89.2% and the “Antagonistic Activity Against Isoprenaline (% Inhibition), Pulse” value was 87.6%. The 50% lethal dose (LD50) (as a rule, the dose expected to kill half of the subjects tested) in data set [1] (iv, i.v., read-out: LD50 i.v.) is 162 mg/kg. Also, the LD50 in data set [1] (po, p.o., read-out: LD50 p.o.) worked out at 2000 mg/kg.

In the case of `CC(C)(C)NCC(O)COc1cccc2[nH]c(=O)ccc12` (centres unmarked) [5-(2-hydroxy-3-tert-butylamino)propoxycarbostyril], in the data set with isoprenaline (30 γ/Kg from the femoral vein), the “Antagonistic Activity Against Isoprenaline (% Inhibition), Blood Pressure” value is reported as 97.9% and the “Antagonistic Activity Against Isoprenaline (% Inhibition), Pulse” value is reported as 96.1%. The 50% lethal dose (LD50) in data set [1] (iv, i.v., read-out: LD50 i.v.) was 136 mg/kg. Moreover, the LD50 in data set [1] (po, p.o., read-out: LD50 p.o.) was 1800 mg/kg.

On to `CC(C)NCC(O)COc1cccc2ccc(=O)[nH]c12` (centres unmarked) [8-(2-hydroxy-3-isopropylamino)propoxycarbostyril], for which, in the data set with isoprenaline (100 γ/Kg from the femoral vein), the “Antagonistic Activity Against Isoprenaline (% Inhibition), Blood Pressure” value came to 66.2% and the “Antagonistic Activity Against Isoprenaline (% Inhibition), Pulse” value came to 57.4%. The LD50 in data set [1] (iv, i.v., read-out: LD50 i.v.) was 178 mg/kg. Moreover, in data set [1] (po, p.o., read-out: LD50 p.o.), the LD50 was determined as 2000 mg/kg.

For the compound `CCC(C)NCC(O)COc1cccc2ccc(=O)[nH]c12` (centres unmarked) [8-(2-hydroxy-3-sec-butylamino)propoxycarbostyril], in the data set with isoprenaline (100 γ/Kg from the femoral vein), the “Antagonistic Activity Against Isoprenaline (% Inhibition), Blood Pressure” value came out at 51.8% and the “Antagonistic Activity Against Isoprenaline (% Inhibition), Pulse” value was 42.1%. Also, the LD50 in data set [1] (iv, i.v., read-out: LD50 i.v.) is 143 mg/kg. In data set [1] (po, p.o., read-out: LD50 p.o.), the LD50 is 1900 mg/kg.

`CC(C)(C)NCC(O)COc1cccc2ccc(=O)[nH]c12` (centres unmarked) [8-(2-hydroxy-3-tert-butylamino)propoxycarbostyril]: in the data set with isoprenaline (100 γ/Kg from the femoral vein), the “Antagonistic Activity Against Isoprenaline (% Inhibition), Blood Pressure” value was found to be 78.3%. The “Antagonistic Activity Against Isoprenaline (% Inhibition), Pulse” value in the data set on isoprenaline (100 γ/Kg from the femoral vein) was determined as 72.6%. The LD50 in data set [1] (iv, i.v., read-out: LD50 i.v.) worked out at 148 mg/kg; in data set [1] (po, p.o., read-out: LD50 p.o.), 1800 mg/kg.
